Data as given in the supplement of paper PMC10307832.

What was measured:
Experiment in all cases: relative viability (nuclei count vs DMSO), 5 days (fraction); higher = more cells survive
Tipifarnib = compound: Cn1cncc1[C@@](N)(c1ccc(Cl)cc1)c1ccc2c(c1)c(-c1cccc(Cl)c1)cc(=O)n2C [Tipifarnib]
Method in brief: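 Five library-drug doses, separated by factors of √10, were pinned into 1536-well plates holding lung cancer cell lines after an overnight stay at 37 °C. Cells were fixed, permeabilised and Hoechst-stained in one step after 5 days without medium change, then imaged at 4×. Viability compares treated-well with vehicle-well nuclei, counted in MetaXpress, as a median across plates. Passing plates had control CV below 25% and at least one doubling.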

Tipifarnib + Navitoclax = compound: Cn1cncc1[C@@](N)(c1ccc(Cl)cc1)c1ccc2c(c1)c(-c1cccc(Cl)c1)cc(=O)n2C [Tipifarnib] + CC1(C)CCC(c2ccc(Cl)cc2)=C(CN2CCN(c3ccc(C(=O)NS(=O)(=O)c4ccc(N[C@H](CCN5CCOCC5)CSc5ccccc5)c(S(=O)(=O)C(F)(F)F)c4)cc3)CC2)C1 [Navitoclax] (partner 0.5 µM)
Method in brief: (§1)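 Lung cancer cell lines were seeded in 1536-well plates and dosed by pin tool the next day, with either a single drug or a fixed anchor-drug dose combined with five library-drug doses (not always all listed) spaced in √10 steps. Five days later, one step fixed the cells and stained their nuclei (final 0.05% Triton X-100, 1% formaldehyde, 1 ug/ml Hoechst), and nuclei were counted on 4× images. Relative viability is the nuclei count in treated wells divided by the count in vehicle wells, and each value is the median of duplicate plates.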

Tipifarnib + Tozasertib = compound: Cn1cncc1[C@@](N)(c1ccc(Cl)cc1)c1ccc2c(c1)c(-c1cccc(Cl)c1)cc(=O)n2C [Tipifarnib] + Cc1cc(Nc2cc(N3CCN(C)CC3)nc(Sc3ccc(NC(=O)C4CC4)cc3)n2)n[nH]1 [Tozasertib] (partner 0.1 µM)
Method in brief: as §1

Tipifarnib + Phenformin = compound: Cn1cncc1[C@@](N)(c1ccc(Cl)cc1)c1ccc2c(c1)c(-c1cccc(Cl)c1)cc(=O)n2C [Tipifarnib] + N=C(N)NC(=N)NCCc1ccccc1 [Phenformin] (partner 250 µM)
Method in brief: as §1

Cell Line	relative viability (Tipifarnib; 0.01 µM)	relative viability (Tipifarnib; 0.03162 µM)	relative viability (Tipifarnib; 0.1 µM)	relative viability (Tipifarnib; 0.3162 µM)	relative viability (Tipifarnib; 1 µM)	relative viability (Tipifarnib + Navitoclax; first compound 0.01 µM)	relative viability (Tipifarnib + Navitoclax; first compound 0.03162 µM)	relative viability (Tipifarnib + Navitoclax; first compound 0.1 µM)	relative viability (Tipifarnib + Navitoclax; first compound 0.3162 µM)	relative viability (Tipifarnib + Navitoclax; first compound 1 µM)	relative viability (Tipifarnib + Tozasertib; first compound 0.01 µM)	relative viability (Tipifarnib + Tozasertib; first compound 0.03162 µM)	relative viability (Tipifarnib + Tozasertib; first compound 0.1 µM)	relative viability (Tipifarnib + Tozasertib; first compound 0.3162 µM)	relative viability (Tipifarnib + Tozasertib; first compound 1 µM)	relative viability (Tipifarnib + Phenformin; first compound 0.01 µM)	relative viability (Tipifarnib + Phenformin; first compound 0.03162 µM)	relative viability (Tipifarnib + Phenformin; first compound 0.1 µM)	relative viability (Tipifarnib + Phenformin; first compound 0.3162 µM)	relative viability (Tipifarnib + Phenformin; first compound 1 µM)
NCI-H1437	1.01	1.01	1.02	0.917	0.634	1.14	1.07	1.06	1.03	0.927	0.398	0.358	0.381	0.319	0.353	0.266	0.315	0.296	0.218	0.228
NCI-H1650	0.68	0.486	0.553	0.453	0.374	0.666	0.352	0.402	0.291	0.289	0.267	0.283	0.241	0.205	0.326	0.291	0.209	0.196	0.262	0.187
NCI-H1651	1.02	0.992	1.05	0.992	0.877	1.15	1.21	0.994	0.912	0.895	0.927	0.649	0.615	0.575	0.711	0.322	0.327	0.319	0.266	0.235
NCI-H1666	0.99	0.858	0.858	0.8	0.795	0.853	0.758	0.727	0.644	0.637	0.593	0.507	0.526	0.447	0.517	0.526	0.502	0.552	0.471	0.575
NCI-H1734	0.92	0.865	0.789	0.559	0.448	0.882	0.718	0.635	0.464	0.431	0.294	0.26	0.247	0.215	0.239	0.391	0.352	0.373	0.251	0.275
NCI-H1755	1.02	1	0.976	0.955	0.826	1.02	0.971	0.968	0.776	0.851	0.741	0.584	0.639	0.518	0.569	0.703	0.594	0.564	0.577	0.418
NCI-H1793	0.981	0.802	0.869	0.448	0.462	0.409	0.481	0.441	0.373	0.353	0.286	0.284	0.248	0.247	0.265	0.357	0.371	0.354	0.194	0.267
NCI-H1915	0.772	0.763	0.606	0.494	0.42	0.791	0.65	0.768	0.455	0.469	0.358	0.326	0.293	0.26	0.287	0.383	0.359	0.341	0.267	0.236
NCI-H1944	0.886	0.65	0.514	0.437	0.429	1.18	0.826	0.913	0.519	0.524	0.257	0.256	0.236	0.25	0.236	0.207	0.194	0.163	0.155	0.168
NCI-H1975	0.914	1.11	0.979	0.705	0.59	1.29	1.04	1.08	0.541	0.734	0.853	0.695	0.682	0.386	0.374	0.435	0.403	0.413	0.347	0.274
NCI-H1993	0.966	0.754	0.736	0.593	0.69	0.852	0.866	0.765	0.645	0.671	0.444	0.481	0.553	0.521	0.481	0.414	0.508	0.529	0.518	0.559
NCI-H2009	1.03	0.876	0.766	0.697	0.575	1.13	1.06	0.785	0.63	0.744	0.605	0.574	0.421	0.341	0.419	0.525	0.492	0.388	0.386	0.352
NCI-H2023	0.868	0.665	0.502	0.458	0.288	1.01	0.773	0.68	0.457	0.47	0.251	0.289	0.217	0.182	0.215	0.415	0.381	0.273	0.272	0.236
NCI-H2085	1.04	0.82	0.708	0.661	0.723	0.862	0.788	0.546	0.611	0.514	0.723	0.663	0.468	0.437	0.617	0.777	0.442	0.433	0.385	0.532
NCI-H2087	0.849	0.405	0.332	0.329	0.401	0.918	0.559	0.407	0.411	0.467	0.245	0.164	0.164	0.132	0.132	0.463	0.38	0.298	0.294	0.222
NCI-H2126	1.03	0.992	0.954	0.933	0.566	0.888	0.822	0.845	0.74	0.709	0.858	0.697	0.673	0.603	0.501	0.56	0.532	0.517	0.49	0.435
NCI-H2170	1.04	1.03	0.992	0.789	0.8	0.733	0.566	0.448	0.433	0.338	0.839	0.718	0.456	0.501	0.47	0.439	0.418	0.389	0.379	0.343
NCI-H2228	1.06	0.844	0.687	0.606	0.553	0.878	0.71	1.06	0.735	0.527	0.24	0.164	0.223	0.174	0.235	0.25	0.286	0.379	0.222	0.138
NCI-H2347	0.831	0.89	0.735	0.676	0.691	0.782	0.576	0.643	0.627	0.598	0.516	0.402	0.431	0.382	0.461	0.474	0.405	0.501	0.318	0.315
NCI-H2405	1.03	0.984	0.928	0.954	0.735	1.01	0.86	0.961	0.8	0.537	0.708	0.666	0.626	0.544	0.532	0.384	0.371	0.374	0.415	0.361
NCI-H3122	1.02	0.977	0.949	0.704	0.44	1.02	0.95	0.857	0.675	0.782	0.372	0.27	0.277	0.196	0.183	0.413	0.419	0.419	0.356	0.228
PC-3 [JPC-3]	0.981	0.977	0.979	0.754	0.576	0.814	0.648	0.749	0.532	0.416	0.827	0.827	0.722	0.701	0.535	0.513	0.44	0.458	0.399	0.377
PC-14	0.9	0.695	0.481	0.32	0.263	1.05	0.847	0.658	0.482	0.51	0.397	0.496	0.172	0.165	0.155	0.512	0.494	0.282	0.239	0.128
RERF-LC-KJ	1.1	0.948	0.899	0.697	0.665	1.14	0.931	0.61	0.467	0.46	0.623	0.435	0.454	0.325	0.334	0.447	0.401	0.392	0.366	0.339
SK-LU-1	1.03	0.778	0.711	0.536	0.634	0.779	0.488	0.435	0.25	0.405	0.305	0.302	0.311	0.248	0.265	0.528	0.324	0.307	0.275	0.283
SK-MES-1	1.07	0.933	0.909	0.727	0.704	1.3	1.11	0.866	0.785	0.655	0.834	0.76	0.63	0.566	0.572	0.659	0.663	0.651	0.619	0.57
SW 1573	0.965	0.603	0.477	0.42	0.357	1.05	0.678	0.49	0.407	0.331	0.177	0.179	0.145	0.142	0.176	0.362	0.299	0.268	0.156	0.197
UMC-11	0.884	0.641	0.566	0.517	0.432	0.263	0.211	0.235	0.191	0.194	0.19	0.193	0.194	0.181	0.177	0.332	0.311	0.303	0.251	0.238
